# Measurements: patent US11084829B2, “Ubiquitin-specific-processing protease 7 (USP7) modulators and uses thereof” (RAPT THERAPEUTICS, INC., priority 2018, dated 2021)
# Target: USP7 (Homo sapiens, UniProt Q93009)
# Assay: USP7 inhibitory potency (IC50)
# Format: biochemical
# Description: Activity for compounds described herein is provided in Table 2, wherein potency levels are provided as follows: (Potency: USP7 IC50: A<0.01 μM; B=0.01-0.1 μM; C=>0.1 μM.
# Chain of USP7 (Q93009 whole entry): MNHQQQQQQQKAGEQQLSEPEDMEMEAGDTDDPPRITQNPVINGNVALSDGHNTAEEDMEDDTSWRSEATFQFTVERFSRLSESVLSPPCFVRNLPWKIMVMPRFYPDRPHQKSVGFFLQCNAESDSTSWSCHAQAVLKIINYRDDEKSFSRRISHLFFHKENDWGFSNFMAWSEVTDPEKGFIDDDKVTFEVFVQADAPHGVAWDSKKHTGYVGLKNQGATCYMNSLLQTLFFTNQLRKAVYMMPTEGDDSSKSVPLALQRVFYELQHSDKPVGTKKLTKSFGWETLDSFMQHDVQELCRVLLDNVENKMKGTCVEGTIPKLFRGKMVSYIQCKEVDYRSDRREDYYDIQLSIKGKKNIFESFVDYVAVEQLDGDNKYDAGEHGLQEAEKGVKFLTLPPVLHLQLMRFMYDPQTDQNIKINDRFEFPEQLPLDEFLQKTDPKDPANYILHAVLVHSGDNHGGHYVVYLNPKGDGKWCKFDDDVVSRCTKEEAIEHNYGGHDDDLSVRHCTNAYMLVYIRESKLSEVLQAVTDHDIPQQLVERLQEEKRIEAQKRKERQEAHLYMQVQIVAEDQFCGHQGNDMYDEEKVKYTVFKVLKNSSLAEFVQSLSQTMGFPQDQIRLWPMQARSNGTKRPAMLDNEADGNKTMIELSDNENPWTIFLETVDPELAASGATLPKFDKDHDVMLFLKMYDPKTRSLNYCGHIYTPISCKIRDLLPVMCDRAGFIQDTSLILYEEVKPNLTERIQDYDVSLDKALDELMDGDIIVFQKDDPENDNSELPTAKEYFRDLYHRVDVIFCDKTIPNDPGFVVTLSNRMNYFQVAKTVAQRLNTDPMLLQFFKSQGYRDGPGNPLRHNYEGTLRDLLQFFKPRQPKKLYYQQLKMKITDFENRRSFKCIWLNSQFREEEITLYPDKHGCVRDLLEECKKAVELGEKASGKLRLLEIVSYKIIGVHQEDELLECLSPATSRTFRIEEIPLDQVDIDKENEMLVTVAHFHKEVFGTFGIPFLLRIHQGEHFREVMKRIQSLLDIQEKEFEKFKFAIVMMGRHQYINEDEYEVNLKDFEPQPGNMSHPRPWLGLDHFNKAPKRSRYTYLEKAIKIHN
row,Compound,IC50
1,"Cc1cc(Cl)cc(-c2ncnc3cc(CN4C(=O)C5CC5C4=O)sc23)c1CC1CNCCCO1 (stereo not drawn) [Example 189, 3-((4-(2-((1,4-oxazepan-2-yl)methyl)-5-chloro-3-methylphenyl)thieno[3,2-d]pyrimidin-6-yl)methyl)-3-azabicyclo[3.1.0]hexane-2,4-dione]",< 10 nM
2,"Cc1cc(Cl)cc(-c2ncnc3cc(CN4C(=O)N(C)C(C)(C)C4=O)sc23)c1C[C@@H]1CNCC(C)(C)O1 [Example 233, (R)-3-((4-(5-chloro-2-((6,6-dimethylmorpholin-2-yl)methyl)-3-methylphenyl)thieno[3,2-d]pyrimidin-6-yl)methyl)-1,5,5-trimethylimidazolidine-2,4-dione]",< 10 nM
3,"3-((7-(5-chloro-2-(((2S,6S)-2,6-dimethyl piperazin-1-yl)methyl)-3-methylphenyl)thieno[3,2-b]pyridin-2-yl)methyl)-1-methylpyrimidine-2,4(1H,3H)-dione [Example 78]",< 10 nM
4,"Cc1cc(C)c(CN2CCNC[C@@H]2C)c(-c2ncnc3cc(CN4C(=O)C5CC5C4=O)sc23)c1 (stereo partly drawn) [Example 71, 3-((4-(3,5-dimethyl-2-(((S)-2-methylpiperazin-1-yl)methyl)phenyl)thieno[3,2-d]pyrimidin-6-yl)methyl)-3-azabicyclo[3.1.0]hexane-2,4-dione]",> 100 nM
5,"C[C@H]1CNCCN1Cc1c(F)cc(F)cc1-c1ncnc2cc(CN3C(=O)C4CC4C3=O)sc12 (stereo partly drawn) [Example 74, 3-((4-(3,5-difluoro-2-(((S)-2-methylpiperazin-1-yl)methyl)phenyl)thieno[3,2-d]pyrimidin-6-yl)methyl)-3-azabicyclo[3.1.0]hexane-2,4-dione]",> 100 nM
6,"Cc1cc(Cl)cc(-c2ncnc3cc(CN4C(=O)COC4=O)sc23)c1CN1C[C@@H](C)NC[C@@H]1C [Example 76, 3-((4-(5-chloro-2-(((2S,5R)-2,5-dimethylpiperazin-1-yl)methyl)-3-methylphenyl)thieno[3,2-d]pyrimidin-6-yl)methyl)oxazolidine-2,4-dione]",10 to 100 nM
7,"Cc1cc(Cl)cc(-c2ccnc3cc(CN4C(=O)CCC4=O)sc23)c1CC1CNCCO1 (stereo not drawn) [Example 96, 1-((7-(5-chloro-3-methyl-2-(morpholin-2-ylmethyl)phenyl)thieno[3,2-b]pyridin-2-yl)methyl)pyrrolidine-2,5-dione]",10 to 100 nM
8,"Cc1cc(Cl)cc(-c2ncnc3cc(CN4C(=O)CCN(C)C4=O)sc23)c1C[C@H]1CNCC(C)(C)O1 [Example 214, (S)-3-((4-(5-chloro-2-((6,6-dimethylmorpholin-2-yl)methyl)-3-methylphenyl)thieno[3,2-d]pyrimidin-6-yl)methyl)-1-methyldihydropyrimidine-2,4(1H,3H)-dione]",10 to 100 nM
9,"C[C@H]1CNC[C@H](C)N1Cc1c(Cl)cc(Cl)cc1-c1ccnc2cc(CN3C(=O)C4CC4C3=O)sc12 (stereo partly drawn) [Example 47, 3-((7-(3,5-dichloro-2-(((2S,6S)-2,6-dimethylpiperazin-1-yl)methyl)phenyl)thieno[3,2-b]pyridin-2-yl)methyl)-3-azabicyclo[3.1.0]hexane-2,4-dione]",< 10 nM
10,"Cc1cc(Cl)cc(-c2ncnc3cc(CN4C(=O)C5CCCN5C4=O)sc23)c1CC1CNCCO1 (stereo not drawn) [Example 187, 2-((4-(5-chloro-3-methyl-2-(morpholin-2-ylmethyl)phenyl)thieno[3,2-d]pyrimidin-6-yl)methyl)tetrahydro-1H-pyrrolo[1,2-c]imidazole-1,3(2H)-dione]",< 10 nM
11,"CC1(C)CNCC(Cc2c(Cl)cc(Cl)cc2-c2ccnc3cc(CN4C(=O)CCC4=O)sc23)O1 (stereo not drawn) [Example 128, 1-((7-(3,5-dichloro-2-((6,6-dimethylmorpholin-2-yl)methyl)phenyl)thieno[3,2-b]pyridin-2-yl)methyl)pyrrolidine-2,5-dione]",< 10 nM
12,"Cc1cc(Cl)cc(-c2ncnc3cc(CN4C(=O)C5CC5C4=O)sc23)c1CC1(C)CNCCO1 (stereo not drawn) [Example 156, 3-((4-(5-chloro-3-methyl-2-((2-methylmorpholin-2-yl)methyl)phenyl)thieno[3,2-d]pyrimidin-6-yl)methyl)-3-azabicyclo[3.1.0]hexane-2,4-dione]",10 to 100 nM
